Data reported in patent US20230072421A1, “TARGETED RADIOPHARMACEUTICALS FOR THE DIAGNOSIS AND TREATMENT OF PROSTATE CANCER” (Bayer AS, priority 2019, published 2023).

Target: T1, PSMA-expressing LNCaP cells (Homo sapiens, UniProt Q04609)
T1 construct: PSMA-expressing LNCaP cells; endogenous in cells; host or cells: LNCaP
Test: Binding competition assay against 3H-PSMA-617 on LNCaP cells
Conditions: for remaining activity at 0.01 µM / remaining activity at 0.1 µM: LNCaP cells, 10 nM 3H-PSMA-617, 2 h at 37° C., triplicates; for remaining activity at 0.01 µM: competing non-radiolabeled compound 10 nM; for remaining activity at 0.1 µM: competing non-radiolabeled compound 100 nM; for competition against 3H-PSMA-617 on PSMA-expressing LNCaP cells (in words): comparison between examples
Protocol: Cells were incubated at 37° C. and 5% CO2 over night. […] After addition of the compounds in growth media the cells were swiveled slightly on a shaker mixing for 10 min followed by incubation for 2 h at 37° C., 5% C02. Following the incubation time the supernatant was removed by pipetting and cells were washed twice with ice cold PBS (total of 800 μl). Cells were lysed in 500 μl of 0.3M NaOH (PanReac AppliChem ITW Reagents) by vigorous shaking for 15 min and the cell lysated pipetted into scintillator tubes (S207-[…]® Scintillation Vials 6.5 ml #S207, Simport). In the following the wells were washed with 500 μl PBS and the washing PBS added to the corresponding samples in the sincitallator tubes. To each sample in the scintillator tubes 4 mL of Ultima Gold liquid scintillation cocktail (Sigma-Aldrich #L8286) was added and the samples let stand for at least 30 min. Thereafter radioactivity was counted in a Tri-Carb Liquid Scinzillation Analyzer (Perkin Elmer).

T1 sequence (Q04609 whole entry): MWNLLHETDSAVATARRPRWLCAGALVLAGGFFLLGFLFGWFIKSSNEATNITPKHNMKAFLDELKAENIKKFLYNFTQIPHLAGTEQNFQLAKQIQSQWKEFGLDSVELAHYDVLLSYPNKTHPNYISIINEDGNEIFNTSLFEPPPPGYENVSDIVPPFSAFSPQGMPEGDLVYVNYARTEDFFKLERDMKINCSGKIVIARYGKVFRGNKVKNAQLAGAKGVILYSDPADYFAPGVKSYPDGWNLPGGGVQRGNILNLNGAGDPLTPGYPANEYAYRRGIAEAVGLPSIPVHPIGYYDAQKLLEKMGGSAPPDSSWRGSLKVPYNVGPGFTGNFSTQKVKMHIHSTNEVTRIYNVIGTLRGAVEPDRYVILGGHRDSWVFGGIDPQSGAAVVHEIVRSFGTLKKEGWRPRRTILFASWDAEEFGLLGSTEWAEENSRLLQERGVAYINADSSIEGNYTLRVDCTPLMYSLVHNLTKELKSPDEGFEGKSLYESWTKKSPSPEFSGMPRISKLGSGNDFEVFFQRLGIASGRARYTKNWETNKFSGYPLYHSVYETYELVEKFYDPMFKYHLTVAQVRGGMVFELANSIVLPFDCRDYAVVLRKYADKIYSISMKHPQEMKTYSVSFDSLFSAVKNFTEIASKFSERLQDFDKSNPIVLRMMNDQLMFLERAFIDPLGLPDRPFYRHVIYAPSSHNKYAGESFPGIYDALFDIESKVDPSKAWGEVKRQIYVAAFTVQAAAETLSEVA

Structure (SMILES)	remaining activity at 0.01 µM [%]	remaining activity at 0.1 µM [%]	competition against 3H-PSMA-617 on PSMA-expressing LNCaP cells (in words)
NC[C@H]1CC[C@H](C(=O)N[C@@H](Cc2ccc(F)cc2)C(=O)NCCCC[C@H](NC(=O)N[C@@H](CCC(=O)O)C(=O)O)C(=O)O)CC1 [Example 7-A, N^6—{N-[(1r,4S)-4-(aminomethyl)cyclohexane-1-carbonyl]-4-fluoro-L-phenylalanyl}-N^2-{[(1S)-1,3-dicarboxypropyl]carbamoyl}-L-lysine]	106	93	–
NC[C@H]1CC[C@H](C(=O)N[C@@H](CCCCNC(=O)c2cccnc2)C(=O)NCCCC[C@H](NC(=O)N[C@@H](CCC(=O)O)C(=O)O)C(=O)O)CC1 [Example 9-A, N^6—{N^2-[(1r,4S)-4-(aminomethyl)cyclohexane-1-carbonyl]-N^6-(pyridine-3-carbonyl)-L-lysyl}-N^2-{[(1S)-1,3-dicarboxypropyl]carbamoyl}-L-lysine]	147	114	–
Cc1cc(C(=O)NCCN(CCCN(CCNC(=O)c2cc(C)n(CC(=O)O)c(=O)c2O)CCNC(=O)c2cc(C)n(CC(=O)NCc3ccc(C(=O)N[C@@H](Cc4ccc5ccccc5n4)C(=O)NCCCC[C@H](NC(=O)N[C@@H](CCC(=O)O)C(=O)O)C(=O)O)nc3)c(=O)c2O)CCNC(=O)c2cc(C)n(CC(=O)NCc3ccc(C(=O)NC(Cc4ccc5ccccc5n4)C(=O)NCCCC[C@H](NC(=O)N[C@@H](CCC(=O)O)C(=O)O)C(=O)O)nc3)c(=O)c2O)c(O)c(=O)n1CC(=O)O (stereo partly drawn) [34-C dimer, (3S,10S,14S,3'S,10'S,14'S)-1,1′-(propane-1,3-diylbis{[(2-{[1-(carboxymethyl)-3-hydroxy-6-methyl-2-oxo-1,2-dihydropyridine-4-carbonyl]amino}ethyl)azanediyl]ethane-2,1-diylcarbamoyl(3-hydroxy-6-methyl-2-oxopyridine-4,1(2H)-diyl)(1-oxoethane-2,1-diyl)azanediylmethylenepyridine-5,2-diyl})bis{1,4,12-trioxo-3-[(quinolin-2-yl)methyl]-2,5,11,13-tetraazahexadecane-10,14,16-tricarboxylic acid}]	42	7	–
O=C(O)CC[C@H](NC(=O)N[C@@H](CCCCNC(=O)[C@H](Cc1ccc2ccccc2c1)NC(=O)Cc1ccc(NC(=O)CN2CCN(CC(=O)O)CCN(CC(=O)O)CCN(CC(=O)O)CC2)cc1)C(=O)O)C(=O)O [Example 23-B, (4S,11S,15S)-4-[(naphthalen-2-yl)methyl]-2,5,13-trioxo-1-(4-{2-[4,7,10-tris(carboxymethyl)-1,4,7,10-tetraazacyclododecan-1-yl]acetamido}phenyl)-3,6,12,14-tetraazaheptadecane-11,15,17-tricarboxylic acid]	66	18	–
NC[C@H]1CC[C@H](C(=O)N[C@@H](CCCCNC(N)=O)C(=O)NCCCC[C@H](NC(=O)N[C@@H](CCC(=O)O)C(=O)O)C(=O)O)CC1 [Example 5-A, N^6—{N^2-[(1r,4S)-4-(aminomethyl)cyclohexane-1-carbonyl]-N^6-carbamoyl-L-lysyl}-N^2-{[(1S)-1,3-dicarboxypropyl]carbamoyl}-L-lysine]	109	112	–
O=C(O)CC[C@H](NC(=O)N[C@@H](CCCCNC(=O)[C@H](Cc1ccc2ccccc2n1)NC(=O)c1ccc(CNC(=O)CN2CCN(CC(=O)O)CCN(CC(=O)O)CCN(CC(=O)O)CC2)cn1)C(=O)O)C(=O)O [Example 34-B, N^6-{3-(quinolin-2-yl)-N-[5-({2-[4,7,10-tris(carboxymethyl)-1,4,7,10-tetraazacyclododecan-1-yl]acetamido}methyl)pyridine-2-carbonyl]-L-alanyl}-N^2-{[(1S)-1,3-dicarboxypropyl]carbamoyl}-L-lysine]	43	6	improved competition
Cc1ccc(C[C@H](NC(=O)[C@H]2CC[C@H](CN)CC2)C(=O)NCCCC[C@H](NC(=O)N[C@@H](CCC(=O)O)C(=O)O)C(=O)O)cc1 [Example 13-A, N^6—{N-[(1r,4S)-4-(aminomethyl)cyclohexane-1-carbonyl]-4-methyl-L-phenylalanyl}-N^2-{[(1S)-1,3-dicarboxypropyl]carbamoyl}-L-lysine]	108	124	–
CC(=O)NCCCC[C@H](NC(=O)[C@H]1CC[C@H](CN)CC1)C(=O)NCCCC[C@H](NC(=O)N[C@@H](CCC(=O)O)C(=O)O)C(=O)O [Example 11-A, N^6—{N^6-acetyl-N^2-[(1r,4S)-4-(aminomethyl)cyclohexane-1-carbonyl]-L-lysyl}-N^2-{[(1S)-1,3-dicarboxypropyl]carbamoyl}-L-lysine]	117	146	–

More lines, main results first:

remaining activity at 0.01 µM [%]	remaining activity at 0.1 µM [%]	Structure (SMILES)	competition against 3H-PSMA-617 on PSMA-expressing LNCaP cells (in words)
98	73	NC[C@H]1CC[C@H](C(=O)N[C@@H](Cc2cc3ccccc3cn2)C(=O)NCCCC[C@H](NC(=O)N[C@@H](CCC(=O)O)C(=O)O)C(=O)O)CC1 [Example 36-A, N^6—{N-[(1r,4S)-4-(aminomethyl)cyclohexane-1-carbonyl]-3-(isoquinolin-3-yl)-L-alanyl}-N^2-{[(1S)-1,3-dicarboxypropyl]carbamoyl}-L-lysine]	–
33	6	NCc1ccc(C(=O)N[C@@H](Cc2ccc3ccccc3c2)C(=O)NCCCC[C@H](NC(=O)N[C@@H](CCC(=O)O)C(=O)O)C(=O)O)cn1 [Example 26-A, (3S,10S,14S)-1-[6-(aminomethyl)pyridin-3-yl]-3-[(naphthalen-2-yl)methyl]-1,4,12-trioxo-2,5,11,13-tetraazahexadecane-10,14,16-tricarboxylic acid]	improved competition in comparison to the cyclohexyl examples 1-A and 1-B
84	46	NCc1ccc(C(=O)N[C@@H](Cc2cnc3ccccc3c2)C(=O)NCCCC[C@H](NC(=O)N[C@@H](CCC(=O)O)C(=O)O)C(=O)O)nc1 [Example 32-A, N^6—{N-[5-(aminomethyl)pyridine-2-carbonyl]-3-(quinolin-3-yl)-L-alanyl}-N^2-{[(1S)-1,3-dicarboxypropyl]carbamoyl}-L-lysine]	–
79	67	NCc1ccc(C(=O)N[C@@H](Cc2ccc3ccccc3c2)C(=O)NCCCC[C@H](NC(=O)N[C@H](CCC(=O)O)C(=O)O)C(=O)O)nc1 [Example 25-A-D, (3S,10S,14R)-1-[5-(aminomethyl)pyridin-2-yl]-3-[(naphthalen-2-yl)methyl]-1,4,12-trioxo-2,5,11,13-tetraazahexadecane-10,14,16-tricarboxylic acid]	–
86	78	NC[C@H]1CC[C@H](C(=O)N[C@H](Cc2ccc3ccncc3c2)C(=O)NCCCC[C@H](NC(=O)N[C@@H](CCC(=O)O)C(=O)O)C(=O)O)CC1 [Example 42-A, (3R,10S,14S)-1-[(1r,4S)-4-(aminomethyl)cyclohexyl]-3-[(isoquinolin-7-yl)methyl]-1,4,12-trioxo-2,5,11,13-tetraazahexadecane-10,14,16-tricarboxylic acid]	–
96	82	NC[C@H]1CC[C@H](C(=O)N[C@@H](Cc2csc3ccccc23)C(=O)NCCCC[C@H](NC(=O)N[C@@H](CCC(=O)O)C(=O)O)C(=O)O)CC1 [Example 43-A, N^6—{N-[(1r,4S)-4-(aminomethyl)cyclohexane-1-carbonyl]-3-(1-benzothiophen-3-yl)-L-alanyl}-N^2-{[(1S)-1,3-dicarboxypropyl]carbamoyl}-L-lysine]	–
90	47	O=C(O)CC[C@H](NC(=O)N[C@@H](CCCCNC(=O)[C@@H](Cc1ccc2cccnc2c1)NC(=O)[C@H]1CC[C@H](CNC(=O)CN2CCN(CC(=O)O)CCN(CC(=O)O)CCN(CC(=O)O)CC2)CC1)C(=O)O)C(=O)O [Example 45-B, (3R,10S,14S)-1,4,12-trioxo-3-[(quinolin-7-yl)methyl]-1-[(1r,4S)-4-({2-[4,7,10-tris(carboxymethyl)-1,4,7,10-tetraazacyclododecan-1-yl]acetamido}methyl)cyclohexyl]-2,5,11,13-tetraazahexadecane-10,14,16-tricarboxylic acid]	–
88	35	O=C(O)CC[C@H](NC(=O)N[C@@H](CCCCNC(=O)[C@@H](Cc1cnc2ccccc2c1)NC(=O)c1ccc(CNC(=O)CN2CCN(CC(=O)O)CCN(CC(=O)O)CCN(CC(=O)O)CC2)cn1)C(=O)O)C(=O)O [Example 32-B, N^6-{3-(quinolin-3-yl)-N-[5-({2-[4,7,10-tris(carboxymethyl)-1,4,7,10-tetraazacyclododecan-1-yl]acetamido}methyl)pyridine-2-carbonyl]-D-alanyl}-N^2-{[(1S)-1,3-dicarboxypropyl]carbamoyl}-L-lysine]	–
93	87	NC[C@H]1CC[C@H](C(=O)N[C@H](Cc2ccc3cccnc3c2)C(=O)NCCCC[C@H](NC(=O)N[C@@H](CCC(=O)O)C(=O)O)C(=O)O)CC1 [Example 45-A, (3R,10S,14S)-1-[(1r,4S)-4-(aminomethyl)cyclohexyl]-1,4,12-trioxo-3-[(quinolin-7-yl)methyl]-2,5,11,13-tetraazahexadecane-10,14,16-tricarboxylic acid]	–
